Assay results reported in ChEMBL document CHEMBL4041541, “Solvent free, catalyst free, microwave or grinding assisted synthesis of bis-cyclic imide derivatives and their evaluation for anticancer activity” (Bioorg Med Chem Lett, 2017).

Legend:
T47D [1] = assay: Growth inhibition of human T47D cells at 1 x 10^-5 M after 24 hrs by MTT assay relative to control; type: functional; conditions: read-out: GI
NCI-H522 [2] = assay: Growth inhibition of human NCI-H522 cells at 1 x 10^-5 M after 24 hrs by MTT assay relative to control; type: functional; conditions: NCI-H522, 24 h, read-out: GI
HCT-15 [3] = assay: Growth inhibition of human HCT15 cells at 1 x 10^-5 M after 24 hrs by MTT assay relative to control; type: functional; conditions: HCT-15, 24 h, read-out: GI
PA-1 [4] = assay: Growth inhibition of human PA1 cells at 1 x 10^-5 M after 24 hrs by MTT assay relative to control; type: functional; conditions: PA-1, 24 h, read-out: GI
HepG2 [5] = assay: Growth inhibition of human HepG2 cells at 1 x 10^-5 M after 24 hrs by MTT assay relative to control; type: functional; conditions: HepG2, 24 h, read-out: GI
T47D [6] = assay: Growth inhibition of human T47D cells after 24 hrs by MTT assay; type: functional, cell-based
NCI-H522 [7] = assay: Growth inhibition of human NCI-H522 cells after 24 hrs by MTT assay; type: functional, cell-based; conditions: NCI-H522, 24 h
HCT-15 [8] = assay: Growth inhibition of human HCT15 cells after 24 hrs by MTT assay; type: functional, cell-based; conditions: HCT-15, 24 h
PA-1 [9] = assay: Growth inhibition of human PA1 cells after 24 hrs by MTT assay; type: functional, cell-based; conditions: PA-1, 24 h
HepG2 [10] = assay: Growth inhibition of human HepG2 cells after 24 hrs by MTT assay; type: functional, cell-based; conditions: HepG2, 24 h
HEK-293T = assay: Growth inhibition of HEK293T cells after 24 hrs by MTT assay; type: cell-based; conditions: Homo sapiens
[11] = Selectivity index, ratio of IC50 for HEK293T cells to IC50 for human T47D cells; type: functional
[12] = Selectivity index, ratio of IC50 for HEK293T cells to IC50 for human NCI-H522 cells; type: functional
[13] = Selectivity index, ratio of IC50 for HEK293T cells to IC50 for human HCT15 cells; type: functional
[14] = Selectivity index, ratio of IC50 for HEK293T cells to IC50 for human PA1 cells; type: functional
[15] = Selectivity index, ratio of IC50 for HEK293T cells to IC50 for human HepG2 cells; type: functional

Compound | inhibition of growth at 10 µM (T47D [1]) | inhibition of growth at 10 µM (NCI-H522 [2]) | inhibition of growth at 10 µM (HCT-15 [3]) | inhibition of growth at 10 µM (PA-1 [4]) | inhibition of growth at 10 µM (HepG2 [5]) | IC50 (T47D [6]) | IC50 (NCI-H522 [7]) | IC50 (HCT-15 [8]) | IC50 (PA-1 [9]) | IC50 (HepG2 [10]) | IC50 (HEK-293T) | Ratio IC50 [11] | Ratio IC50 [12] | Ratio IC50 [13] | Ratio IC50 [14] | Ratio IC50 [15]
O=C1C2CCCCC2C(=O)N1CCCC1OCC2(CO1)COC(CCCN1C(=O)C3CCCCC3C1=O)OC2 (stereo not given) | 11% | 28% | 21% | 15% | 13% | – | – | – | – | – | – | – | – | – | – | –
O=C1Cc2ccccc2C(=O)N1CCOCCOCCN1C(=O)Cc2ccccc2C1=O | 1% | 5% | 0% | 0% | 1% | – | – | – | – | – | – | – | – | – | – | –
O=C1C2CCCCC2C(=O)N1c1ccc(S(=O)(=O)c2ccc(N3C(=O)C4CCCCC4C3=O)cc2)cc1 (stereo not given) | 51% | 49% | 65% | 36% | 57% | 12.7 µM | 19.6 µM | 63.3 µM | 22.6 µM | 17.1 µM | 43.6 µM | 2.5 - 4.5 | 2.5 - 4.5 | 2.5 - 4.5 | 2.5 - 4.5 | 2.5 - 4.5
O=C1CNCC(=O)N1CCCC1OCC2(CO1)COC(CCCN1C(=O)CNCC1=O)OC2 (stereo not given) | 31% | 25% | 21% | 12% | 37% | – | – | – | – | – | – | – | – | – | – | –
O=C1Cc2ccccc2C(=O)N1CCCN1C(=O)Cc2ccccc2C1=O | 11% | 1% | 7% | 15% | 5% | – | – | – | – | – | – | – | – | – | – | –
O=C1C2CCCCC2C(=O)N1CCOCCOCCN1C(=O)C2CCCCC2C1=O (stereo not given) | 31% | 29% | 51% | 25% | 37% | 15.9 µM | 32.4 µM | 23.8 µM | 19 µM | 27.5 µM | > 100 µM | – | – | – | – | –
CC(CN1C(=O)c2nc[nH]c2C1=O)N1C(=O)c2nc[nH]c2C1=O (stereo not given) | 32% | 3% | 30% | 20% | 36% | – | – | – | – | – | – | – | – | – | – | –
O=C1CNCC(=O)N1CCCN1CCN(CCCN2C(=O)CNCC2=O)CC1 | 24% | 19% | 14% | 29% | 21% | – | – | – | – | – | – | – | – | – | – | –
O=C1C2CCCCC2C(=O)N1CCCN1CCN(CCCN2C(=O)C3CCCCC3C2=O)CC1 (stereo not given) | 11% | 9% | 8% | 6% | 19% | – | – | – | – | – | – | – | – | – | – | –
O=C1c2nc[nH]c2C(=O)N1CCOCCOCCN1C(=O)c2nc[nH]c2C1=O | 37% | 32% | 27% | 19% | 49% | – | – | – | – | – | – | – | – | – | – | –
O=C1c2nccnc2C(=O)N1CCN1C(=O)c2nccnc2C1=O | 11% | 30% | 39% | 4% | 7% | – | – | – | – | – | – | – | – | – | – | –
O=C1Cc2ccccc2C(=O)N1CCCN1CCN(CCCN2C(=O)Cc3ccccc3C2=O)CC1 | 5% | 6% | 1% | 0% | 7% | – | – | – | – | – | – | – | – | – | – | –
O=C1c2nccnc2C(=O)N1CCCN1CCN(CCCN2C(=O)c3nccnc3C2=O)CC1 | 15% | 19% | 10% | 18% | 20% | – | – | – | – | – | – | – | – | – | – | –
O=C1c2nccnc2C(=O)N1CCCN1C(=O)c2nccnc2C1=O | 13% | 0% | 5% | 16% | 1% | – | – | – | – | – | – | – | – | – | – | –
O=c1[nH]cc(F)c(=O)[nH]1 [FLUOROURACIL] | 24% | 27% | 12% | 7% | 17% | – | 55.6 µM | – | – | 32.9 µM | > 100 µM | – | – | – | – | –
O=C1Cc2ccccc2C(=O)N1CCCC1OCC2(CO1)COC(CCCN1C(=O)Cc3ccccc3C1=O)OC2 (stereo not given) | 1% | 0% | 12% | 0% | 5% | – | – | – | – | – | – | – | – | – | – | –
